Literature values, collected in patent US8581001B2, “Metformin-cysteine prodrug” (Codman & Shurtleff, priority 2010, dated 2013).

Key:
human patients = human patients (NASH)
[1] = not given; remark: listed apart in the source
LAT1 = LAT1 (Homo sapiens, UniProt Q01650)
LAT2 = biological target: T1, LAT2 (Homo sapiens, UniProt Q9UHI5)
T1 sequence (Q9UHI5 1-535): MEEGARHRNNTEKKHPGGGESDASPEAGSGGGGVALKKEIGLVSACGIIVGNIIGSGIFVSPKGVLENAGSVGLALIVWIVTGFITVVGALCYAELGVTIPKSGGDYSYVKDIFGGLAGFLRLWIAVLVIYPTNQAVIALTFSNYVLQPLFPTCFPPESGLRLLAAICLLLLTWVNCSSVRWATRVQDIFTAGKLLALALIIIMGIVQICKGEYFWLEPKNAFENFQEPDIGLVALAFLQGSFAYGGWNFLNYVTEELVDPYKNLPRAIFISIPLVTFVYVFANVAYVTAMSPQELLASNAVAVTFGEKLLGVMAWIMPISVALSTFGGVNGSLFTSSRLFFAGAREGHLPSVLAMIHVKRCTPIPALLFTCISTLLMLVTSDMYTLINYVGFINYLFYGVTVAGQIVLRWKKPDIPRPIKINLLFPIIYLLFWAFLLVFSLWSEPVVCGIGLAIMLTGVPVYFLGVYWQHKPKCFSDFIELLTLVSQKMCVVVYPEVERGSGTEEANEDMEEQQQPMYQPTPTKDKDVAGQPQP
T1 sequence (P08195 1-529 partner): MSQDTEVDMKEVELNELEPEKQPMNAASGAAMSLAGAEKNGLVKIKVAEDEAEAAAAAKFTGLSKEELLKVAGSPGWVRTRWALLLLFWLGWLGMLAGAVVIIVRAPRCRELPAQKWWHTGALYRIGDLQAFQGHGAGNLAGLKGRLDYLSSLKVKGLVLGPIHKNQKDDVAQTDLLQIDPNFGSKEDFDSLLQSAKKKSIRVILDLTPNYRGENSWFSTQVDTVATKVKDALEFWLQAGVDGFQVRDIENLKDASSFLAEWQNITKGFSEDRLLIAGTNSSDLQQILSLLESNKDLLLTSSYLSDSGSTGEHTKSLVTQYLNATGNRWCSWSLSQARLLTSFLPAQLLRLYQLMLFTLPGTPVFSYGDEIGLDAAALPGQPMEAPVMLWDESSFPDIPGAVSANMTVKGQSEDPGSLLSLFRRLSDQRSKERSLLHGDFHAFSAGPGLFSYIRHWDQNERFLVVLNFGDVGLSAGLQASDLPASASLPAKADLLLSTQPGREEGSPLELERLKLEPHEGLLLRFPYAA

LAT1, sequence (Q01650 whole entry, species assumed, one chain of several): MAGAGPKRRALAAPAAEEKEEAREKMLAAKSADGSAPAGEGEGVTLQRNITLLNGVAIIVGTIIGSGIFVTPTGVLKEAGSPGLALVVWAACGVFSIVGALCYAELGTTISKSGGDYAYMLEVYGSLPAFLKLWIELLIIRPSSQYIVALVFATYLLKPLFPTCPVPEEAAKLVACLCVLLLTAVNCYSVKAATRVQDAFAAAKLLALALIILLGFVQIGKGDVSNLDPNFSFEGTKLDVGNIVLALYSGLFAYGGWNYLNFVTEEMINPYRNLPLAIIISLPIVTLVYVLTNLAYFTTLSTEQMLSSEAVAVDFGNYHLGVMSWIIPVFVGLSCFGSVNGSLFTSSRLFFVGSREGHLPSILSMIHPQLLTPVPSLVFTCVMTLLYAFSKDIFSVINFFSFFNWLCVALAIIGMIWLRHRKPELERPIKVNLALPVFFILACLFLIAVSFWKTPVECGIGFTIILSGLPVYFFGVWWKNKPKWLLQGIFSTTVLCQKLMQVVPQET

N[C@@H](CCC(=O)N[C@@H](CSSC[C@H](N)C(=O)O)C(=O)NCC(=O)O)C(=O)O [Cy-LLGSH]
protection against acetaminophen-induced hepatotoxicity (mice): highly effective

CC(=O)N[C@@H](CS)C(=O)O [NAC, n-acetylcysteine]
amelioration of the complications of non-alcoholic fatty liver disease (human patients): neither metformin nor NAC alone provided any significant benefits

CN(C)C(=N)N=C(N)N [metformin]
absorption in the colon (colon): poorly absorbed | uptake in the small intestine (small intestine): effectively taken up | window in which metformin is above ½ of its Cmax ([1]; FIG. 4 of US 2007-0154548): about 6 hours | time window for effective plasma concentrations ([1]; in vivo): about 6 hours | amelioration of the complications of non-alcoholic fatty liver disease (human patients): neither metformin nor NAC alone provided any significant benefits

N[C@@H](CSN=O)C(=O)O [s-nitroso-L-cysteine]
transport by LAT1 transporter (LAT1): efficiently transported | transport by LAT2 transporter (LAT2): efficiently transported
